Experimental data reported in patent US7968599B2, “Fast release solid formulation, preparation and use thereof” (Intervet International B.V., priority 2007, dated 2011).

Assay: Dissolution / solubility rate profile, USP apparatus 2 with paddle agitation
Assay type: physicochemical
Conditions: Milli-Q water 25° C., paddle 50 rpm, final 0.1 mg/mL florfenicol
Protocol: To determine the solubility profile of different formulations, dissolution was performed using USP apparatus 2 with paddle agitation at 50 rpm. The dissolution medium was Milli-Q water maintained at a temperature of 25° C. The formulations were added directly to the water in the correct amount to achieve a final concentration of 0.1 mg/mL of florfenicol. Aliquots of the resulting solution were withdrawn and analyzed using either UV-VIS spectrophotometry or HPLC, the latter to exclude excipient contribution or degradation of florfenicol. For HPLC analysis, an organic/aqueous mobile phase was used for the separation on a C18, reverse phase column. Detection was performed by UV absorption spectrometry. The percent dissolved was calculated versus an external reference standard prepared at the nominal concentration of the analyte.

CS(=O)(=O)c1ccc([C@@H](O)[C@@H](CF)NC(=O)C(Cl)Cl)cc1 (relative stereo) [florfenicol, [R-(R*,S*)]-2,2-Dichloro-N-[1-(fluoromethyl)-2-hydroxy-2-[4-(methylsulfonyl)phenyl]-ethyl]acetamide]
percent florfenicol dissolved within 15 minutes (15 minutes): approximately 25%
percent florfenicol dissolved within 60 minutes (60 minutes): approximately 43%
